Experimental data as given in patent publication US20020026053A1, “Novel 3-(substituted) -2- indolinones compounds and use thereof as inhibitors of protein kinase activity” (priority 1997, published 2002).

system: FLK-1 receptor; assay: FLK-1 Assay (cellular/catalytic ELISA, VEGF-stimulated phosphotyrosine); assay type: cell-based; design: concentration or dose not given beside the values; conditions: protocol P.110
Outline: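 NIH3T3 C7#3 cells engineered to express Flk-1 were serum-starved overnight (0.1% FBS), then exposed to compound for 2 h at 37 °C (final dilution 1:200, 0.5% DMSO) before VEGF stimulation. Lysates captured on anti-FLK-1 antiserum plates; phosphotyrosine detected by UB40 antibody/POD-ABTS ELISA versus untreated controls.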

Row | SMILES | Flk Kinase % Inhibition (P.110) [%]
1 | Cc1ccc(C)c(C=C2C(=O)Nc3c(Br)cc(Br)c(C)c32)c1 [10737/H07] | 15.5
2 | Cc1c(Br)cc(Br)c2c1C(=Cc1ccc3ccccc3c1)C(=O)N2 [10737/H08] | 10.0
3 | Cc1c(Br)cc(Br)c2c1C(=Cc1ccc(Oc3ccccc3)cc1)C(=O)N2 [10737/H09] | 5.5
4 | Cc1c(Br)cc(Br)c2c1C(=Cc1cccc(Oc3ccc(C(C)(C)C)cc3)c1)C(=O)N2 [10737/H10] | 10.5
5 | Cc1c(Br)cc(Br)c2c1C(=Cc1cccc(Oc3cccc(C(F)(F)F)c3)c1)C(=O)N2 [10737/H11] | 14.5
6 | Cc1ccc(Oc2cccc(C=C3C(=O)Nc4c(Br)cc(Br)cc43)c2)cc1 [10738/A02] | −14.2
7 | O=C1Nc2c(Br)cc(Br)cc2C1=Cc1cccc(Oc2ccc(Cl)c(Cl)c2)c1 [10738/A03] | 12.8
8 | COc1ccc(C=C2C(=O)Nc3c(Br)cc(Br)cc32)cc1O [10738/A04] | −16.2
9 | O=C1Nc2c(Br)cc(Br)cc2C1=Cc1cc(O)ccc1[N+](=O)[O-] [10738/A05] | −24.5
10 | O=C1Nc2c(Br)cc(Br)cc2C1=Cc1cccc(O)c1O [10738/A06] | 77.3
11 | O=C1Nc2c(Br)cc(Br)cc2C1=Cc1cc(O)cc(O)c1 [10738/A07] | −22.1
12 | O=C1Nc2c(Br)cc(Br)cc2C1=Cc1ccc(Cl)c(Cl)c1 [10738/A08] | −9.3
13 | COc1ccccc1C=C1C(=O)Nc2c(Br)cc(Br)cc21 [10738/A09] | −9.8
14 | CC(C)c1ccc(C=C2C(=O)Nc3c(Br)cc(Br)cc32)cc1 [10738/A10] | −8.5
15 | CCCOc1ccc(C=C2C(=O)Nc3c(Br)cc(Br)cc32)cc1 [10738/A11] | −7.5
16 | Cc1ccc(Oc2cccc(C=C3C(=O)Nc4ccc(I)cc43)c2)cc1 [10738/B02] | −8.5
17 | O=C1Nc2ccc(I)cc2C1=Cc1cccc(Oc2ccc(Cl)c(Cl)c2)c1 [10738/B03] | −1.2
18 | COc1ccc(C=C2C(=O)Nc3ccc(I)cc32)cc1O [10738/B04] | 55.0
19 | O=C1Nc2ccc(I)cc2C1=Cc1cc(O)ccc1[N+](=O)[O-] [10738/B05] | −13.1
20 | O=C1Nc2ccc(I)cc2C1=Cc1cccc(O)c1O [10738/B06] | −44.1
21 | O=C1Nc2ccc(I)cc2C1=Cc1cc(O)cc(O)c1 [10738/B07] | −22.7
22 | O=C1Nc2ccc(I)cc2C1=Cc1ccc(Cl)c(Cl)c1 [10738/B08] | −0.7
23 | COc1ccccc1C=C1C(=O)Nc2ccc(I)cc21 [10738/B09] | −6.2
24 | CC(C)c1ccc(C=C2C(=O)Nc3ccc(I)cc32)cc1 [10738/B10] | 14.3
25 | CCCOc1ccc(C=C2C(=O)Nc3ccc(I)cc32)cc1 [10738/B11] | 8.8
26 | Cc1ccc(Oc2cccc(C=C3C(=O)Nc4ccc(Br)c(C)c43)c2)cc1 [10738/C02] | −0.1

Row | SMILES | Flk Kinase % Inhibition (P.110) [%]
27 | Cc1c(Br)ccc2c1C(=Cc1cccc(Oc3ccc(Cl)c(Cl)c3)c1)C(=O)N2 [10738/C03] | 28.0
28 | COc1ccc(C=C2C(=O)Nc3ccc(Br)c(C)c32)cc1O [10738/C04] | 84.2
29 | Cc1c(Br)ccc2c1C(=Cc1cc(O)ccc1[N+](=O)[O-])C(=O)N2 [10738/C05] | −4.4
30 | Cc1c(Br)ccc2c1C(=Cc1cccc(O)c1O)C(=O)N2 [10738/C06] | −68.1
31 | Cc1c(Br)ccc2c1C(=Cc1cc(O)cc(O)c1)C(=O)N2 [10738/C07] | −7.4
32 | Cc1c(Br)ccc2c1C(=Cc1ccc(Cl)c(Cl)c1)C(=O)N2 [10738/C08] | −7.4
33 | COc1ccccc1C=C1C(=O)Nc2ccc(Br)c(C)c21 [10738/C09] | 4.5
34 | Cc1c(Br)ccc2c1C(=Cc1ccc(C(C)C)cc1)C(=O)N2 [10738/C10] | −2.5
35 | CCCOc1ccc(C=C2C(=O)Nc3ccc(Br)c(C)c32)cc1 [10738/C11] | 8.4
36 | CNS(=O)(=O)c1ccc2c(c1)C(=Cc1cccc(Oc3ccc(C)cc3)c1)C(=O)N2 [10738/D02] | 2.8
37 | CNS(=O)(=O)c1ccc2c(c1)C(=Cc1cccc(Oc3ccc(Cl)c(Cl)c3)c1)C(=O)N2 [10738/D03] | 13.6
38 | CNS(=O)(=O)c1ccc2c(c1)C(=Cc1ccc(OC)c(O)c1)C(=O)N2 [10738/D04] | −13.1
39 | CNS(=O)(=O)c1ccc2c(c1)C(=Cc1cc(O)ccc1[N+](=O)[O-])C(=O)N2 [10738/D05] | −12.5
40 | CNS(=O)(=O)c1ccc2c(c1)C(=Cc1cccc(O)c1O)C(=O)N2 [10738/D06] | −26.7
41 | CNS(=O)(=O)c1ccc2c(c1)C(=Cc1cc(O)cc(O)c1)C(=O)N2 [10738/D07] | 10.3
42 | CNS(=O)(=O)c1ccc2c(c1)C(=Cc1ccc(Cl)c(Cl)c1)C(=O)N2 [10738/D08] | 11.9
43 | CNS(=O)(=O)c1ccc2c(c1)C(=Cc1ccccc1OC)C(=O)N2 [10738/D09] | 9.4
44 | CNS(=O)(=O)c1ccc2c(c1)C(=Cc1ccc(C(C)C)cc1)C(=O)N2 [10738/D10] | 15.4
45 | CCCOc1ccc(C=C2C(=O)Nc3ccc(S(=O)(=O)NC)cc32)cc1 [10738/D11] | 10.4
46 | Cc1ccc(Oc2cccc(C=C3C(=O)Nc4ccc(S(=O)(=O)Nc5ccc(C(F)(F)F)cc5)cc43)c2)cc1 [10738/E02] | 3.6
47 | O=C1Nc2ccc(S(=O)(=O)Nc3ccc(C(F)(F)F)cc3)cc2C1=Cc1cccc(Oc2ccc(Cl)c(Cl)c2)c1 [10738/E03] | 7.8
48 | COc1ccc(C=C2C(=O)Nc3ccc(S(=O)(=O)Nc4ccc(C(F)(F)F)cc4)cc32)cc1O [10738/E04] | −11.5
49 | O=C1Nc2ccc(S(=O)(=O)Nc3ccc(C(F)(F)F)cc3)cc2C1=Cc1cc(O)ccc1[N+](=O)[O-] [10738/E05] | −4.8
50 | O=C1Nc2ccc(S(=O)(=O)Nc3ccc(C(F)(F)F)cc3)cc2C1=Cc1cccc(O)c1O [10738/E06] | 10.1
51 | O=C1Nc2ccc(S(=O)(=O)Nc3ccc(C(F)(F)F)cc3)cc2C1=Cc1cc(O)cc(O)c1 [10738/E07] | 43.4
52 | O=C1Nc2ccc(S(=O)(=O)Nc3ccc(C(F)(F)F)cc3)cc2C1=Cc1ccc(Cl)c(Cl)c1 [10738/E08] | 12.8

Row | SMILES | Flk Kinase % Inhibition (P.110) [%]
53 | COc1ccccc1C=C1C(=O)Nc2ccc(S(=O)(=O)Nc3ccc(C(F)(F)F)cc3)cc21 [10738/E09] | 21.2
54 | CC(C)c1ccc(C=C2C(=O)Nc3ccc(S(=O)(=O)Nc4ccc(C(F)(F)F)cc4)cc32)cc1 [10738/E10] | 5.1
55 | CCCOc1ccc(C=C2C(=O)Nc3ccc(S(=O)(=O)Nc4ccc(C(F)(F)F)cc4)cc32)cc1 [10738/E11] | 10.2
56 | Cc1ccc(Oc2cccc(C=C3C(=O)Nc4ccc(S(=O)(=O)N5CCOCC5)cc43)c2)cc1 [10738/F02] | 15.0
57 | O=C1Nc2ccc(S(=O)(=O)N3CCOCC3)cc2C1=Cc1cccc(Oc2ccc(Cl)c(Cl)c2)c1 [10738/F03] | 9.0
58 | COc1ccc(C=C2C(=O)Nc3ccc(S(=O)(=O)N4CCOCC4)cc32)cc1O [10738/F04] | −32.3
59 | O=C1Nc2ccc(S(=O)(=O)N3CCOCC3)cc2C1=Cc1cc(O)ccc1[N+](=O)[O-] [10738/F05] | 3.3
60 | O=C1Nc2ccc(S(=O)(=O)N3CCOCC3)cc2C1=Cc1cccc(O)c1O [10738/F06] | −12.6
61 | O=C1Nc2ccc(S(=O)(=O)N3CCOCC3)cc2C1=Cc1cc(O)cc(O)c1 [10738/F07] | 6.4
62 | O=C1Nc2ccc(S(=O)(=O)N3CCOCC3)cc2C1=Cc1ccc(Cl)c(Cl)c1 [10738/F08] | 16.8
63 | COc1ccccc1C=C1C(=O)Nc2ccc(S(=O)(=O)N3CCOCC3)cc21 [10738/F09] | 1.7
64 | CC(C)c1ccc(C=C2C(=O)Nc3ccc(S(=O)(=O)N4CCOCC4)cc32)cc1 [10738/F10] | 9.5
65 | CCCOc1ccc(C=C2C(=O)Nc3ccc(S(=O)(=O)N4CCOCC4)cc32)cc1 [10738/F11] | 15.8
66 | Cc1ccc(Oc2cccc(C=C3C(=O)Nc4ccc(CCCl)cc43)c2)cc1 [10738/G02] | −10.5
67 | O=C1Nc2ccc(CCCl)cc2C1=Cc1cccc(Oc2ccc(Cl)c(Cl)c2)c1 [10738/G03] | −4.1
68 | COc1ccc(C=C2C(=O)Nc3ccc(CCCl)cc32)cc1O [10738/G04] | −57.2
69 | O=C1Nc2ccc(CCCl)cc2C1=Cc1cc(O)ccc1[N+](=O)[O-] [10738/G05] | 4.0
70 | O=C1Nc2ccc(CCCl)cc2C1=Cc1cccc(O)c1O [10738/G06] | −52.4
71 | O=C1Nc2ccc(CCCl)cc2C1=Cc1cc(O)cc(O)c1 [10738/G07] | −19.3
72 | O=C1Nc2ccc(CCCl)cc2C1=Cc1ccc(Cl)c(Cl)c1 [10738/G08] | −15.2
73 | COc1ccccc1C=C1C(=O)Nc2ccc(CCCl)cc21 [10738/G09] | 4.1
74 | CC(C)c1ccc(C=C2C(=O)Nc3ccc(CCCl)cc32)cc1 [10738/G10] | −17.0
75 | CCCOc1ccc(C=C2C(=O)Nc3ccc(CCCl)cc32)cc1 [10738/G11] | −8.1
76 | Cc1ccc(Oc2cccc(C=C3C(=O)Nc4c(Br)cc(Br)c(C)c43)c2)cc1 [10738/H02] | −14.6
77 | Cc1c(Br)cc(Br)c2c1C(=Cc1cccc(Oc3ccc(Cl)c(Cl)c3)c1)C(=O)N2 [10738/H03] | −6.2
